Experimental data as given in ChEMBL document CHEMBL1133271, “Synthesis and biological property of carba and 20-deoxo analogues of arenastatin A” (Bioorg Med Chem Lett, 2000).
In brackets after ≈: the same amount, converted by molar mass.

Assay: Cytotoxicity of compound was determined against KB cells
Type: functional, cell-based
Conditions: Homo sapiens
For `COc1ccc(C[C@H]2NC(=O)/C=C/C[C@@H]([C@H](C)C3OC3c3ccccc3)OC(=O)[C@H](CC(C)C)OCCNC2=O)cc1` (some centres undefined), the IC50 was 40 ng/mL (≈ 69.1 nM). With `COc1ccc(C[C@H]2NC(=O)/C=C/C[C@@H]([C@H](C)C3OC3c3ccccc3)OC(=O)[C@H](CC(C)C)CC(=O)CCNC2=O)cc1` (some centres undefined) the IC50 was 70 ng/mL (≈ 116 nM). In the case of `COc1ccc(C[C@H]2NC(=O)/C=C/C[C@@H]([C@H](C)C3OC3c3ccccc3)OC(=O)[C@H](CC(C)C)NC(=O)CCNC2=O)cc1` (some centres undefined), the IC50 is reported as 6 ng/mL (≈ 9.91 nM). For `COc1ccc(C[C@H]2NC(=O)/C=C/C[C@@H]([C@H](C)[C@H]3O[C@@H]3c3ccccc3)OC(=O)[C@H](CC(C)C)OC(=O)CCNC2=O)cc1` [ARENASTATIN A], the IC50 was 0.005 ng/mL (≈ 0.00824 nM).
